Experiment [1] deals with primary human ciliary muscle cells (h-CM). The experiment in a line: Total prostaglandin (PG) release from primary h-CM cells (EIA). The format is cell-based. The conditions noted are these: Homo sapiens, 1 h, 1 hour at 37° C., class symbols (in μM). On the procedure:
BK agonist compounds of Formula 1 were evaluated for the ability to induce prostaglandin (PG) release from primary human ciliary muscle cells (h-CM). Briefly, h-CM cells were grown to confluence in FNC-coated 24-well culture plates and serum-starved (0.8% FBS) for 24 hours prior to the experiment. Cells were stimulated with a 9-pt concentration-response (0.1 nM-10 μM) of bradykinin or BK agonist for 1 hour at 37° C. with subsequent sample recovery and processing for total PG measurement. Total PG measurement was determined using a total Prostaglandin Screening EIA kit (cat#514012) purchased from Cayman Chemical (Ann Arbor, Mich.). The assay was conducted according to the package insert from the manufacturer.

Experiment [2] concerns the target T1, recombinant human bradykinin B2 receptor (Homo sapiens, UniProt P30411).
T1 construct: expressed in transfected cells; host or cells: Chinese hamster ovary (CHO) cells, membrane homogenates
T1 sequence (P30411 1-391): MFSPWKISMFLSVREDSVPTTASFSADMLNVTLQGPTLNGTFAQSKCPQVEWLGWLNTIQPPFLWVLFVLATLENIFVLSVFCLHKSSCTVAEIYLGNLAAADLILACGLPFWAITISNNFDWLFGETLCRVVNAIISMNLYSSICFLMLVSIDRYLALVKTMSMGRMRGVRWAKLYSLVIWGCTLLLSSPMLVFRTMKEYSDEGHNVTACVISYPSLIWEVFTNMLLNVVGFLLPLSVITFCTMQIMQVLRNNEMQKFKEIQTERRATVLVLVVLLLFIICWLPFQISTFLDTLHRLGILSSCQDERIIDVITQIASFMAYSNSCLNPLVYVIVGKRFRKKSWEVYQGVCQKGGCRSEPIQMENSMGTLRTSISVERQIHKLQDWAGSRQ
The experiment is described as follows: [3H]-BK competition radioligand binding to human cloned B2 receptor (CHO cell membranes). To be noted: 0.2 nM [3H]-bradykinin, CHO membranes, 60 min 23° C.; mean ± SEM or single value; Ki from IC50 by Cheng-Prusoff; read-out: [3H]-BK Binding to Human Cloned B2 Receptor (Ki).

The target of experiment [3] is T2, BK receptors in human ciliary muscle cells (h-CM) (Homo sapiens, UniProt P30411).
T2 construct: h-CM cells expressing BK receptors were seeded; endogenous in cells; host or cells: human ciliary muscle (h-CM) cells
T2 sequence (P30411 1-391): T1 sequence (P30411 1-391)
The experiment is described as follows: Functional assay measuring [Ca2+]i mobilization (FLIPR) in h-CM cells. In kind it is cell-based. The conditions noted are these: class symbols (in μM), read-out: CaM (EC50). In short, it runs like this: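 Human ciliary muscle cells loaded 1 h at 23 °C with FLIPR calcium dye in HBSS, 20 mM HEPES, 2.5 mM probenecid, pH 7.4. EC50 by 4-parameter fit.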

Some results are limits rather than exact numbers.

By EC50 is commonly meant the concentration giving half of the maximal effect. The term Ki denotes the equilibrium dissociation constant of an inhibitor or competing ligand from its target. As for `COc1nc2c(OCc3c(Cl)ccc(N(C)C(=O)CNC(=O)CCCNC(C)=O)c3Cl)cccc2n1Cc1ccccn1` [Compound 70], the EC50 in experiment [1] was 0.1 to 1 µM; in experiment [3] it was less than 0.1 µM. For the same compound, the Ki in experiment [2] is 0.599 µM.

`CNC(=O)c1ccc(CCC(=O)NCC(=O)N(C)c2ccc(Cl)c(COc3cccc4c3nc(OC)n4Cc3ccccn3)c2Cl)cc1` [Compound 33, 4-(3-((2-((2,4-dichloro-3-(((2-methoxy-1-(pyridin-2-ylmethyl)-1H-benzo[d]imidazol-4-yl)oxy)methyl)phenyl)(methyl)amino)-2-oxoethyl)amino)-3-oxopropyl)-N-methylbenzamide]: the EC50 in experiment [1] and in experiment [3] was less than 0.1 µM each time. Moreover, the Ki in experiment [2] amounted to 0.007 ± 0.001 µM.

Take `COc1nc2c(OCc3c(Cl)ccc(N(C)C(=O)CNC(=O)CCC4CN=C(N)NC4)c3Cl)cccc2n1Cc1ccccn1` (stereo not drawn) [Compound 63]: the EC50 in experiment [1] was greater than 1 µM; in experiment [3] it was less than 0.1 µM. Besides, the Ki in experiment [2] turned out to be 1.19 µM.

On to `CNC(=O)c1ncc(CCC(=O)NCC(=O)N(C)c2ccc(Cl)c(COc3cccc4c3nc(OC)n4Cc3ccccn3)c2Cl)cn1` [Compound 42, 5-(3-((2-((2,4-dichloro-3-(((2-methoxy-1-(pyridin-2-ylmethyl)-1H-benzo[d]imidazol-4-yl)oxy)methyl)phenyl)(methyl)amino)-2-oxoethyl)amino)-3-oxopropyl)-N-methylpyrimidine-2-carboxamide], for which the EC50 in experiment [1] is 0.1 to 1 µM; in experiment [3], less than 0.1 µM. Further, in experiment [2], the inhibition constant (Ki) was 0.194 µM.

For `COCCNC(=O)c1ccc(CCC(=O)NCC(=O)N(C)c2ccc(Cl)c(COc3cccc4c3nc(OC)n4Cc3ccccn3)c2Cl)cc1` [Compound 1, 4-(3-((2-((2,4-dichloro-3-(((2-methoxy-1-(pyridin-2-ylmethyl)-1H-benzo[d]imidazol-4-yl)oxy)methyl)phenyl)(methyl)amino)-2-oxoethyl)amino)-3-oxopropyl)-N-(2-methoxyethyl)benzamide], the EC50 in experiment [1] and in experiment [3] was less than 0.1 µM in each case. In addition, in experiment [2], the Ki was 0.054 µM.

With `CNC(=O)c1ccc(CCC(=O)NCC(=O)N(C)c2ccc(Cl)c(COc3cccc4c(OCc5ccccn5)cc(C)nc34)c2Cl)cc1` [Compound 30], the EC50 in experiment [1] and in experiment [3] was 0.1 to 1 µM in each case. In addition, the Ki in experiment [2] was determined as 0.003 µM.

As for `CNC(=O)c1ccc(CCC(=O)NCC(=O)N(C)c2ccc(C)c(COc3cccc4c3nc(OC)n4Cc3ccccn3)c2C)cc1` [Compound 56, 4-(3-((2-((3-(((2-methoxy-1-(pyridin-2-ylmethyl)-1H-benzo[d]imidazol-4-yl)oxy)methyl)-2,4-dimethylphenyl)(methyl)amino)-2-oxoethyl)amino)-3-oxopropyl)-N-methylbenzamide], the concentration giving a half-maximal response (EC50) in experiment [1] and in experiment [3] was less than 0.1 µM throughout. In addition, in experiment [2], the Ki came to 0.042 µM.

Regarding `CNC(=O)c1ccc(OCC(=O)NCC(=O)N(C)c2ccc(Cl)c(COc3cccc4c3nc(OC)n4Cc3ccccn3)c2Cl)cc1` [Compound 68], the 50% effective concentration (EC50) in experiment [1] is 0.1 to 1 µM; in experiment [3], less than 0.1 µM. Also, the Ki in experiment [2] was 0.0595 µM.

On to `COc1nc2c(OCc3c(Cl)ccc(N(C)C(=O)CNC(=O)CCc4ccc(NC(=O)CN(C)C)nc4)c3Cl)cccc2n1Cc1ccccn1` [Compound 73], for which the concentration for a half-maximal effect (EC50) in experiment [1] was 0.1 to 1 µM; in experiment [3], less than 0.1 µM. For the same compound, the Ki in experiment [2] turned out to be 0.184 µM.

For the compound `CNC(=O)C1CN(CC(=O)NCC(=O)N(C)c2ccc(Cl)c(COc3cccc4c3nc(OC)n4Cc3ccccn3)c2Cl)CCO1` (stereo not drawn) [Compound 44, 4-(2-((2-((2,4-dichloro-3-(((2-methoxy-1-(pyridin-2-ylmethyl)-1H-benzo[d]imidazol-4-yl)oxy)methyl)phenyl)(methyl)amino)-2-oxoethyl)amino)-2-oxoethyl)-N-methylmorpholine-2-carboxamide], the concentration giving a half-maximal response (EC50) in experiment [1] and in experiment [3] was less than 0.1 µM each time. Moreover, the Ki in experiment [2] is 0.102 µM.

As for `COc1nc2c(OCc3c(Cl)ccc(N(C)C(=O)CNC(=O)[C@H]4CCN(C(=O)OC(C)(C)C)C4)c3Cl)cccc2n1Cc1ccccn1` [Compound 34, (S)-tert-butyl 3-(2-((2,4-dichloro-3-((2-methoxy-1-(pyridin-2-ylmethyl)-1H-benzo[d]imidazol-4-yloxy)methyl)phenyl)(methyl)amino)-2-oxoethylcarbamoyl)pyrrolidine-1-carboxylate], the EC50 in experiment [1] and in experiment [3] was less than 0.1 µM each time. For the same compound, the inhibitory constant (Ki) in experiment [2] was 0.077 µM.

With `CNC(=O)C1CNCC(CC(=O)NCC(=O)N(C)c2ccc(Cl)c(COc3cccc4c3nc(OC)n4Cc3ccccn3)c2Cl)C1` (stereo not drawn) [Compound 81], the values for the EC50 in experiment [1] and in experiment [3] were greater than 1 µM and less than 0.1 µM, respectively. Further, the Ki in experiment [2] amounted to 0.108 µM.

Turning to `CCc1nc2c(OCc3c(Cl)ccc(N(C)C(=O)CNC(=O)CCN4CCN(C(=O)NC)CC4)c3Cl)cccc2n1Cc1ccccn1` [Compound 19, 4-(3-((2-((2,4-dichloro-3-(((2-ethyl-1-(pyridin-2-ylmethyl)-1H-benzo[d]imidazol-4-yl)oxy)methyl)phenyl)(methyl)amino)-2-oxoethyl)amino)-3-oxopropyl)-N-methylpiperazine-1-carboxamide], the EC50 is greater than 1 µM in experiment [1] and less than 0.1 µM in experiment [3]. Also, the inhibition constant Ki in experiment [2] is 0.262 ± 0.011 µM.

Consider `Cc1cc(OCc2ccccn2)c2cccc(OCc3c(Cl)ccc(N(C)C(=O)CNC(=O)CCc4ccc(NS(C)(=O)=O)cc4)c3Cl)c2n1` [Compound 29, N-(2-((2,4-dichloro-3-(((2-methyl-4-(pyridin-2-ylmethoxy)quinolin-8-yl)oxy)methyl)phenyl)(methyl)amino)-2-oxoethyl)-3-(4-(methylsulfonamido)phenyl)propanamide], for which the EC50 in experiment [1] is greater than 1 µM; in experiment [3] it was 0.1 to 1 µM. Also, the Ki in experiment [2] came to 0.008 ± 0.003 µM.

`COc1nc2c(OCc3c(Cl)ccc(N(C)C(=O)CNC(=O)CCc4ccc(NC(C)=O)nc4)c3Cl)cccc2n1Cc1ccccn1` [Compound 32, 3-(6-acetamidopyridin-3-yl)-N-(2-((2,4-dichloro-3-(((2-methoxy-1-(pyridin-2-ylmethyl)-1H-benzo[d]imidazol-4-yl)oxy)methyl)phenyl)(methyl)amino)-2-oxoethyl)propanamide]: the half-maximal effective concentration (EC50) in experiment [1] and in experiment [3] was less than 0.1 µM in each case. For the same compound, the inhibition constant Ki in experiment [2] was determined as 0.025 ± 0.008 µM.

Take `CNC(=O)[C@H]1CC[C@H](CCC(=O)NCC(=O)N(C)c2ccc(Cl)c(COc3cccc4c3nc(OC)n4Cc3ccccn3)c2Cl)CN1` [Compound 38, (2R,5R)-5-(3-((2-((2,4-dichloro-3-(((2-methoxy-1-(pyridin-2-ylmethyl)-1H-benzo[d]imidazol-4-yl)oxy)methyl)phenyl)(methyl)amino)-2-oxoethyl)amino)-3-oxopropyl)-N-methylpiperidine-2-carboxamide]: the half-maximal effective concentration (EC50) in experiment [1] and in experiment [3] was less than 0.1 µM in each case. In experiment [2], the inhibition constant (Ki) is 0.332 µM.

On to `CCOC(=O)NC1=NCC(CCC(=O)NCC(=O)N(C)c2ccc(Cl)c(COc3cccc4c3nc(OC)n4Cc3ccccn3)c2Cl)CN1` (stereo not drawn) [Compound 9, Ethyl (5-(3-((2-((2,4-dichloro-3-(((2-methoxy-1-(pyridin-2-ylmethyl)-1H-benzo[d]imidazol-4-yl)oxy)methyl)phenyl)(methyl)amino)-2-oxoethyl)amino)-3-oxopropyl)-1,4,5,6-tetrahydropyrimidin-2-yl)carbamate], for which the EC50 in experiment [1] is 0.1 to 1 µM; in experiment [3], less than 0.1 µM. Besides, in experiment [2], the Ki turned out to be 0.667 ± 0.101 µM.

Regarding `CNC(=O)N1CCN(CC(=O)NCC(=O)N(C)c2ccc(Cl)c(COc3cccc4c3nc(OC)n4Cc3ccccn3)c2Cl)CC1` [Compound 20], the EC50 is greater than 1 µM in experiment [1] and 0.1 to 1 µM in experiment [3]. Moreover, the Ki in experiment [2] came out at 1.09 ± 0.138 µM.

For the compound `COc1nc2c(OCc3c(Cl)ccc(N(C)C(=O)CNC(=O)CCN4CCC(NC(C)=O)CC4)c3Cl)cccc2n1Cc1ccccn1` [Compound 8, 3-(4-acetamidopiperidin-1-yl)-N-(2-((2,4-dichloro-3-(((2-methoxy-1-(pyridin-2-ylmethyl)-1H-benzo[d]imidazol-4-yl)oxy)methyl)phenyl)(methyl)amino)-2-oxoethyl)propanamide], the EC50 in experiment [1] and in experiment [3] was less than 0.1 µM each time. The Ki in experiment [2] worked out at 0.068 ± 0.016 µM.

Turning to `CNC(=O)C1CCN(CCC(=O)NCC(=O)N(C)c2ccc(Cl)c(COc3cccc4c3nc(OC)n4Cc3ccccn3)c2Cl)CC1` [Compound 11], the concentration for a half-maximal effect (EC50) in experiment [1] was greater than 1 µM; in experiment [3], less than 0.1 µM. Besides, the Ki in experiment [2] is 0.391 ± 0.035 µM.

Take `CCc1nc2c(OCc3c(Cl)ccc(N(C)C(=O)CNC(=O)CCC4CN=C(NC(C)=O)NC4)c3Cl)cccc2n1Cc1ccccn1` (stereo not drawn) [Compound 61]: the EC50 was greater than 1 µM in experiment [1] and less than 0.1 µM in experiment [3]. In addition, the Ki in experiment [2] is 0.451 µM.

The values are drawn from patent US8252793B2, “Bradykinin receptor agonists and uses thereof to treat ocular hypertension and glaucoma” (Alcon Research, Ltd., priority 2010, dated 2012).
